Laboratory results: PubChem BioAssay AID652030 (The Scripps Research Institute Molecular Screening Center, 2013)
The source made the active and inactive calls.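 The calls were made as follows: active = inhibition of 30% or more against both LYPLA2 panels while inhibition against LYPLA1 stays below 30%; inactive = under 30% on either LYPLA2 panel, or 30%+ on LYPLA1.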

What was measured:
Assay in all cases: LYPLA2 and LYPLA1 inhibition in proteome, late-stage follow-up, selectivity assay for LYPLA2 selective inhibitor project, cell lysate, gel-based ABPP, FP-Rh fluorescence, mouse brain membrane proteome (AID 652030)
[1] = target: Acyl-protein thioesterase 2 (Homo sapiens) (UniProt O95372); conditions: rhLYPLA2, at 10 µM, active compounds read high
[2] = target: Acyl-protein thioesterase 2 (Mus musculus) (UniProt Q9WTL7); conditions: emLYPLA2, at 10 µM, active compounds read high
[3] = target: Acyl-protein thioesterase 1 (Mus musculus) (UniProt P97823); conditions: emLYPLA1, at 10 µM, active compounds read high

Sequence of Acyl-protein thioesterase 2 (Homo sapiens) (O95372 whole entry, looked up): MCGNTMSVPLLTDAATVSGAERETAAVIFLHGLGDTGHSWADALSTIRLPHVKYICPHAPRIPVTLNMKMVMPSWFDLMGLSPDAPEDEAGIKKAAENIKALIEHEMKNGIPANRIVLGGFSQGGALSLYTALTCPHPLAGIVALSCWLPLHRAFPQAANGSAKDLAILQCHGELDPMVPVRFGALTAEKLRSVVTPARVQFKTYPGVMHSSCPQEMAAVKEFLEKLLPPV

| SMILES | inhibition [1] | inhibition [2] | inhibition [3] |
| --- | --- | --- | --- |
| CCN(CC)S(=O)(=O)c1ccc(N2CCOCC2)c(NC(=O)COc2ccc(C#N)cc2)c1 | 3% (inactive) | 0% (inactive) | 12% (inactive) |
| O=C(NCC1CCN(c2ccc(S(=O)(=O)N3CCOCC3)cc2)CC1)c1ccc(Cl)cc1 | 9% (inactive) | 9% (inactive) | 3% (inactive) |
| Cc1cccc(N2CCN(C(=O)Cc3ccc(-n4c(=O)[nH]c5ccsc5c4=O)cc3)CC2)c1C | 4% (inactive) | 0% (inactive) | 14% (inactive) |
| COc1ccc(-n2nc(C(=O)NCC(=O)N3CCN(Cc4ccc5c(c4)OCO5)CC3)c3ccccc3c2=O)cc1OC | 26% (inactive) | 23% (inactive) | 0% (inactive) |
| CC(=O)c1ccc(N2CCN(C(=O)C3CCN(S(=O)(=O)c4ccc5c(c4)CC(C)N5C(C)=O)CC3)CC2)cc1 (centres undefined) | 8% (inactive) | 10% (inactive) | 18% (inactive) |
| Cc1cccc(NC(=O)CN2C(=O)S/C(=C\c3cccn3-c3cccc(C(=O)O)c3)C2=O)c1 | 66% | 77% | 17% (inactive) |
| O=C(Nc1ccc(N2CCN(C(=O)c3ccco3)CC2)c(Cl)c1)c1c(F)c(F)c(F)c(F)c1F | 5% (inactive) | 0% (inactive) | 18% (inactive) |
| Cc1ccc(N/C=C(\C#N)c2ccc(OCCCF)cc2)cc1 | 5% (inactive) | 13% (inactive) | 17% (inactive) |
| CON=Cc1ccc(N2CCN(C(=O)c3cccc(C(F)(F)F)c3)CC2)c([N+](=O)[O-])c1 | 14% (inactive) | 14% (inactive) | 14% (inactive) |
| COc1ccc(-n2nc(C(=O)NCC(=O)N3CCN(Cc4ccccc4)CC3)c3ccccc3c2=O)c(OC)c1 | 18% (inactive) | 15% (inactive) | 0% (inactive) |
| COc1ccc(N2CCN(C(=O)C3CCC(Cn4c(=S)[nH]c5ccccc5c4=O)CC3)CC2)cc1 (centres undefined) | 47% | 44% | 16% (inactive) |
| O=C(N1CCOCC1)n1nnc2ccccc21 | 47% | 54% | 103% |
| COc1ccccc1-n1cc(C(=O)NCC(=O)N2CCN(Cc3ccccc3)CC2)c2ccccc2c1=O | 14% (inactive) | 15% (inactive) | 0% (inactive) |
| COc1ccc(-n2nc(C(=O)NCC(=O)N3CCN(c4cccc(Cl)c4)CC3)c3ccccc3c2=O)c(OC)c1 | 52% | 41% | 33% |
| Cc1cccc(NC(=O)CN2C(=O)S/C(=C\c3cc(C)n(C)c3C)C2=O)c1 | 51% | 40% | 9% (inactive) |
| Cc1ccc(NC(=O)Cn2c([N+](=O)[O-])cnc2C)cc1Cl | 8% (inactive) | 8% (inactive) | 0% (inactive) |
| COc1ccc(/C=C2\SC(=O)N(CC(=O)Nc3ccc(F)cc3)C2=O)cc1O | 16% (inactive) | 24% (inactive) | 15% (inactive) |
| COc1ccc(-c2noc(CCC(=O)N3CCN(c4cccc(C(F)(F)F)c4)CC3)n2)cc1 | 2% (inactive) | 14% (inactive) | 1% (inactive) |
| O=C(Cn1cnc2ccccc2c1=O)c1ccc(OC(F)F)cc1 | 7% (inactive) | 8% (inactive) | 5% (inactive) |
| O=C(CN1C(=O)S/C(=C\c2ccc(C(=O)O)cc2)C1=O)Nc1ccccc1 | 8% (inactive) | 8% (inactive) | 7% (inactive) |
| O=C(O)c1cccc(N2C(=O)c3ccc(Oc4ccc(Cl)cc4)cc3C2=O)c1 | 7% (inactive) | 11% (inactive) | 25% (inactive) |
| Cc1nc(-c2ccc(S(=O)(=O)N3CCCN(CCc4ccccc4)CC3)s2)cs1 | 8% (inactive) | 0% (inactive) | 7% (inactive) |
| O=C(NC(=S)Nc1sc2c(c1C(=O)O)CCCC2)c1ccccc1 | 32% | 43% | 34% |
| CS(=O)(=O)Nc1ccc(N2CCN(c3ccc(C(F)(F)F)cn3)CC2)nc1 | 8% (inactive) | 1% (inactive) | 0% (inactive) |

| SMILES | inhibition [1] | inhibition [2] | inhibition [3] |
| --- | --- | --- | --- |
| Cc1ccc(Oc2ccc3c(c2)C(=O)N(c2ccc(S(=O)(=O)Nc4nccs4)cc2)C3=O)cc1 | 9% (inactive) | 6% (inactive) | 14% (inactive) |
| COc1cc(/C=C2\SC(=O)N(CC(=O)Nc3cccc(C)c3)C2=O)ccc1OC(C)C(=O)O (centres undefined) | 58% | 37% | 28% (inactive) |
| O=C1Nc2ccc([N+](=O)[O-])cc2OC1CCN1CCN(Cc2ccc3c(c2)OCO3)CC1 (centres undefined) | 9% (inactive) | 21% (inactive) | 27% (inactive) |
| O=C(O)c1ccc(CN2C(=O)c3ccc(Oc4ccc([N+](=O)[O-])cc4)cc3C2=O)cc1 | 7% (inactive) | 4% (inactive) | 6% (inactive) |
| CC(=O)N1c2ccc(S(=O)(=O)N3CCC(C(=O)N4CCN(c5ccc(Cl)cc5)CC4)CC3)cc2CC1C (centres undefined) | 32% | 26% (inactive) | 3% (inactive) |
| COc1ccc(N2CCN(C(=O)c3ccc(C(C)(C)C)cc3)CC2)cc1 | 57% | 47% | 16% (inactive) |
| Cc1ccccc1NC(=O)CN1C(=O)S/C(=C\c2cccn2-c2cccc(C(=O)O)c2)C1=O | 4% (inactive) | 13% (inactive) | 0% (inactive) |
| COc1cc(C2Oc3cc(C4Oc5cc(O)cc(O)c5C(=O)C4O)ccc3OC2CO)ccc1O (centres undefined) | 14% (inactive) | 19% (inactive) | 10% (inactive) |
| CC(=O)c1ccc(N2CCN(C(=O)C3CCN(S(=O)(=O)c4ccc5c(c4)CC(C)N5C(=O)C4CC4)CC3)CC2)cc1 (centres undefined) | 10% (inactive) | 19% (inactive) | 18% (inactive) |
| O=[N+]([O-])c1ccc(Oc2cccc(Br)c2)c2ccncc12 | 2% (inactive) | 0% (inactive) | 13% (inactive) |
| COc1ccc2c(c1)C(=O)[C@@H](O)[C@H](c1ccc(OC)c(Br)c1)O2 | 20% (inactive) | 31% | 13% (inactive) |
| CCCCCCCCCC(=O)Nn1cnc2ccccc2c1=O | 4% (inactive) | 12% (inactive) | 28% (inactive) |
| COc1cc(C=NNC(=O)C(NC(=O)c2ccccc2)c2n[nH]c(=O)c3ccccc23)ccc1OCC(N)=O (centres undefined) | 9% (inactive) | 3% (inactive) | 14% (inactive) |
| COc1ccc(OC)c(-c2cc(C(=O)Nc3c(C)nn(Cc4ccccc4)c3C)no2)c1 | 3% (inactive) | 0% (inactive) | 15% (inactive) |
| Cc1nc([N+](=O)[O-])cn1CC(=O)Nc1ccc(F)c(Cl)c1 | 10% (inactive) | 15% (inactive) | 0% (inactive) |
| O=C(Cc1ccc([N+](=O)[O-])cc1)N1CCN(c2ccc([N+](=O)[O-])cc2)CC1 | 0% (inactive) | 0% (inactive) | 0% (inactive) |
| COc1ccc2c(c1)C(=O)[C@H](O)[C@@H](c1ccc(OC)c(Br)c1)O2 | 47% | 55% | 23% (inactive) |
| COc1ccc(OC)c(-c2cc(C(=O)Nc3c(C)nn(Cc4ccccc4C)c3C)no2)c1 | 8% (inactive) | 0% (inactive) | 6% (inactive) |
| COc1ccc(N2CCN(C(=O)c3cc4c(s3)-c3ccccc3S(=O)(=O)C4)CC2)cc1 | 79% | 74% | 25% (inactive) |
| O=C(COc1ccc(Cl)cc1Cl)N1CCN(C/C=C/c2ccccc2)CC1 | 2% (inactive) | 0% (inactive) | 0% (inactive) |
| COc1ccccc1-c1nnc(C2CCN(S(=O)(=O)c3ccc([N+](=O)[O-])cc3)CC2)o1 | 9% (inactive) | 5% (inactive) | 16% (inactive) |
| O=C(c1ccc2n[nH]nc2c1)N1CCN(c2ccc(C(F)(F)F)cn2)CC1 | 26% (inactive) | 35% | 40% |
| C/C(C=NNC(=O)Cn1nnc(N)n1)=C\c1ccc(C(C)C)cc1 | 2% (inactive) | 0% (inactive) | 0% (inactive) |
| CC(CCC(C)C)=NNC(=S)Nc1cc(S(=O)(=O)N2CCOCC2)ccc1N1CCOCC1 | 8% (inactive) | 16% (inactive) | 19% (inactive) |
